# According to patent US8129402B2 (priority 2002, dated 2012):
# “Also recorded” adds a separate entry of the source.
# Key:
# [1] = system: [PSI+] prion (prion form of the protein Sup35p), STRg6 strain; assay type: cell-based, Saccharomyces cerevisiae; conditions: for activity against the [PSI+] prion (FIG. 7, validation of the screen) / activity compared with another compound in the screen: medium contains 200 μM of guanidium chloride; for relative anti-prion activity on a dish (FIG. 4): 10 μl of a 10 mM solution applied; for synergy of action with guanidium chloride: sub-effective guanidium chloride in medium (200 μM, 500 μM)
# mammal prion PrP = mammal prion PrP (Mus musculus, UniProt P04925); conditions: cited from earlier work
# [2] = system: [PSI+] prion, "strong" strain 74-D694; assay type: cell-based, Saccharomyces cerevisiae
# [3] = system: [URE3] prion (Ure2p), NT34 strain; assay type: cell-based, Saccharomyces cerevisiae; conditions: for red halo on NT34 lawn ([URE3] secondary screen): FIG. 6
# [4] = system: [URE3] prion, NT34 and CC34 strains; assay type: cell-based, Saccharomyces cerevisiae
# [5] = target: PrP^sc in ScN2a-22L cells (Mus musculus, UniProt P04925); assay type: cell-based
# Sequence of PrP^sc in ScN2a-22L cells (P04925 23-230 limits assumed): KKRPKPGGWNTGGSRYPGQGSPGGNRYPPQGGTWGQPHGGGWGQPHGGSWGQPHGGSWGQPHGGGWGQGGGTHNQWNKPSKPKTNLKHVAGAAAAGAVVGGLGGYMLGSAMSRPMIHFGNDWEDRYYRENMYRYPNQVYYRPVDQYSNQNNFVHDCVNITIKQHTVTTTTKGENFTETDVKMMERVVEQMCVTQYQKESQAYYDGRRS
# Sequence of mammal prion PrP (P04925 23-230 limits assumed): as above
compound,measurement,setting,value
CN(C)CCCN1c2ccccc2CCc2ccccc21 [imipramine],"activity against the [PSI+] prion (FIG. 7, validation of the screen)",[1],inactive
same,activity in the mammal system (Prof. Prusiner's test),mammal prion PrP,inactive
"Nc1nc2ccccc2c2ccc(Cl)cc12 [6A-8CP, 6-amino-8-chlorophenanthridine]",relative anti-prion activity on a dish (FIG. 4),[1],again increased the activity
CN(C)CCCN1c2ccccc2Sc2ccc(Cl)cc21 [chlorpromazine],"activity against the [PSI+] prion (FIG. 7, validation of the screen)",[1],a certain activity
same,activity compared with another compound in the screen,[1],clearly weaker than that of 6-aminophenanthridine
same,synergy of action with guanidium chloride,[1],strong synergy of action
CCN(CC)CCCC(C)Nc1c2ccc(Cl)cc2nc2ccc(OC)cc12 (stereo not drawn) [quinacrine],"activity against the [PSI+] prion (FIG. 7, validation of the screen)",[1],a certain activity
same,activity compared with another compound in the screen,[1],clearly weaker than that of 6-aminophenanthridine; also recorded: activity greater than the latter
CC(=O)c1ccc2c(c1)N(CCCN(C)C)c1ccccc1S2 [acepromazine],"activity against the [PSI+] prion (FIG. 7, validation of the screen)",[1],weak activity
same,activity in the mammal system (Prof. Prusiner's test),mammal prion PrP,slightly active
NC(=O)N1c2ccccc2C=Cc2ccccc21 [carbamazepine],"activity against the [PSI+] prion (FIG. 7, validation of the screen)",[1],inactive
same,activity in the mammal system (Prof. Prusiner's test),mammal prion PrP,inactive
COc1ccc(CCN(C)CCCC(C#N)(c2ccc(OC)c(OC)c2)C(C)C)cc1OC (stereo not drawn) [verapamil],"activity against the [PSI+] prion (FIG. 7, validation of the screen)",[1],no curative effect could be detected
"Nc1nc2ccccc2c2ccc(C(F)(F)F)cc12 [6A-8tFP, 6-amino-8-trifluoromethylphenanthridine]",relative anti-prion activity on a dish (FIG. 4),[1],one of the most active compounds
Cl.N=C(N)N [guanidium chloride],curing of [PSI+] cells (red staining of the drop of cells),"[2]; 5 mM guanidium chloride, 0.2% DMSO, after 48 hours (approximately 12 generations)",complete curing
same,colony colour of NT34 strain after treatment,[3]; 5 mM of guanidium chloride for approximately ten generations,red colonies
same,"colony colour of NT34 cells recovered around the filter, on fresh medium free of molecules",[4],red colonies
O=C(CCCN1CCC(O)(c2ccc(Cl)cc2)CC1)c1ccc(F)cc1 [haloperidol],"activity against the [PSI+] prion (FIG. 7, validation of the screen)",[1],inactive
same,activity in the mammal system (Prof. Prusiner's test),mammal prion PrP,inactive
CN(C)c1ccc2nc3ccc(=[N+](C)C)cc-3sc2c1 [methylene blue],"activity against the [PSI+] prion (FIG. 7, validation of the screen)",[1],inactive
same,activity in the mammal system (Prof. Prusiner's test),mammal prion PrP,inactive
c1ccc2c(c1)cnc1ccccc12 [phenanthridine],general statement of anti-prion activity in the screen,[1],particularly active
same,anti-prion activity: red halo around the filter disc (size of the halo),"[1]; 15 μl of a 10 mM solution in DMSO, medium with 0.2 mM guanidium chloride, FIG. 3",positive signal
same,activity on a medium without guanidium chloride,[1]; medium without guanidium chloride,always active
same,synergy of action with guanidium chloride,[1],activity increases significantly as a function of the quantity of guanidium chloride
same,red halo on NT34 lawn ([URE3] secondary screen),[3],cause the appearance of a red halo
same,"colony colour of NT34 cells recovered around the filter, on fresh medium free of molecules",[4],red colonies
CN(C)CC/C=C1/c2ccccc2Sc2ccc(Cl)cc21 [chloroprothixene],"activity against the [PSI+] prion (FIG. 7, validation of the screen)",[1],inactive
same,activity in the mammal system (Prof. Prusiner's test),mammal prion PrP,inactive
Nc1nc2ccccc2c2ccccc12 [6-aminophenanthridine],curing of the [PSI+] prion in liquid medium,"[2]; 5 days liquid culture, compound alone, FIG. 5",capable of partially curing the [PSI+] prion from a significant number of cells
same,curing effectiveness with added guanidium chloride in liquid medium,[2]; plus sub-effective dose (100 μM) of guanidium chloride,increased
same,elimination of the mammal prion in vitro (summary),[5],effective
same,effect on the elimination of PrPsc,[5]; at 2 and 4 μM,same effect
same,general statement of anti-prion activity in the screen,[1],particularly active
same,relative anti-prion activity on a dish (FIG. 4),[1],still more active than the Kastellpaolitines and phenanthridine
same,red halo on NT34 lawn ([URE3] secondary screen),[3],cause the appearance of a red halo
same,"colony colour of NT34 cells recovered around the filter, on fresh medium free of molecules",[4],red colonies
same,curing of the [URE3] prion (ability to grow on USA medium),"[4]; CC34 strain, different doses, alone",capable of curing the [URE3] prion in a significant manner
same,curing of the [URE3] prion in combination with guanidium chloride,"[4]; CC34 strain, with 200 μM of guanidium chloride",accentuated
